Data: patent US12263248B2, “Compounds and compositions for intracellular delivery of therapeutic agents” (ModernaTX, Inc., priority 2018, dated 2025)

Tests used:
[1] = Particle size and polydispersity index of nanoparticle compositions (Zetasizer Nano ZS); assay type: physicochemical
Procedure, shortened: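 Measured in 1×PBS by Zetasizer Nano ZS.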

luciferase (Luc) mRNA [2] = experiment: Luc expression in liver, lung, spleen and femur 6 hours after intravenous administration; assay type: in vivo; settings: mice, intravenous, 0.5 mpk
Procedure, shortened: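 LNP-formulated mRNA given IV to mice (n=3) at 0.5 mpk; at 6 h, bioluminescence imaged ex vivo 15 min after IP D-luciferin (15 mg/mL, 200 μL), organs imaged within 25 min. Values are total flux by region of interest.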

IL-6, IP-10 = experiment: Cytokine induction in mice upon intravenous administration; assay type: in vivo; parameters: Cytokine induction IL-6 / Cytokine induction IP-10: unit not given here; settings: intravenous, 0.5 mpk, 6 hours
Procedure, shortened: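 IL-6 and IP-10 concentrations determined 6 hours after a single intravenous 0.5 mpk dose of lipid nanoparticle formulation in mice, with MC3 and PBS as comparators.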

[3] = Encapsulation efficiency of RNA (QUANT-IT RIBOGREEN RNA assay); assay type: physicochemical; settings: for % Encapsulation: lipid nanoparticle, ±SD within one assay run (Table 37)
Procedure, shortened: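 RiboGreen fluorescence (ex ~480, em ~520 nm) compared between intact samples and Triton X-100-lysed samples after 15 min at 37 °C in TE buffer, pH 7.5. Percent free RNA is the blank-corrected intact/disrupted ratio.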

luciferase (Luc) mRNA [4] = experiment: Luc expression, whole body bioluminescence after intravenous administration to mice; assay type: in vivo; settings: for Total Flux 3 hours / Total Flux 6 hours / Total Flux 24 hours: Luc mRNA; for Fold increase in total body Luc Flux relative to MC3 at 6 h: Table 3A, i.v. administration
Procedure, shortened: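 Bioluminescence, read as region-of-interest total flux at 3, 6 and 24 h, followed a single 0.5 mg/kg intravenous dose of Luc mRNA-loaded nanoparticles in mice (n=6). Luciferin substrate (200 μL, 15 mg/mL in PBS) was injected intraperitoneally into CD-1 mice 15 minutes ahead of each imaging point.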

[5] = Table 1A, lipid:DSPC:cholesterol:PEG-DMG 50:10:38.5:1.5 mol %
[6] = lipid nanoparticle, ±SD within one assay run (Table 37)
[7] = Table 1B, formulated with hEPO mRNA
[8] = Table 1C, compositions for subcutaneous administration
[9] = Table 1D, for subcutaneous administration, # formulated with hEPO mRNA

SMILES | PDI ([1]; Table 1A) | Size (nm) [1, 5] [nm] | PDI (Polydispersity index) [1, 6] | Total Flux Femur (luciferase (Luc) mRNA [2]) | Total Flux Liver (luciferase (Luc) mRNA [2]) | Total Flux Lung (luciferase (Luc) mRNA [2]) | Total Flux Spleen (luciferase (Luc) mRNA [2]) | Cytokine induction IL-6 (IL-6, IP-10) | Cytokine induction IP-10 (IL-6, IP-10) | EE (%) ([3]; Table 1A) | % Encapsulation [3] [%] | Total Flux 3 hours (luciferase (Luc) mRNA [4]; mice, i.v., 0.5 mg/kg) | Total Flux 6 hours (luciferase (Luc) mRNA [4]; mice, i.v., 0.5 mg/kg) | Total Flux 24 hours (luciferase (Luc) mRNA [4]; mice, i.v., 0.5 mg/kg) | Fold increase in total body Luc Flux relative to MC3 at 6 h (luciferase (Luc) mRNA [4]) | further results
CCCCCCCCCOC(=O)CCCCCCCN(CCO)CCCCCCCC(=O)OCCCCCCCCC [Compound 138, Dinonyl 8,8′-((2-hydroxyethyl)azanediyl)dioctanoate] | <0.5 | 179.4 | 0.14 ± 0.05 | 1.58E+05 | 3.66E+06 | 9.47E+04 | 4.04E+06 | 23.38 | 172.56 | 91.8 | 91.8 ± 0.9 | 2.97E+07 | 2.30E+07 | 1.63E+06 |  | 
CCCCCCCCC(CCCCCCCC)OC(=O)CCCCCCCN(CCO)CCCCCCCC(=O)OC(CCCCCCCC)CCCCCCCC [Compound 29, Di(heptadecan-9-yl) 8,8′-((2-hydroxyethyl)azanediyl)dioctanoate] | 0.11 | 66.8 | 0.11 ± 0.03 | 9.56E+05 | 5.20E+08 | 9.83E+05 | 5.99E+06 | 69.54 | 1362.81 | 96.99 | 97.0 ± 0.6 | 4.61E+09 | 2.89E+09 | 3.55E+08 | 0.78 | Size [1, 6]: 66.8 ± 1.1 nm; Fold increase in Luc expression relative to MC3, Intravenous (0.5 mpk dose) (luciferase (Luc) mRNA [4]; intravenous, 0.5 mpk): 1.03; luciferase activity relative to MC3 LNP control (luciferase (Luc) mRNA [4]; mice, intravenous, 0.5 mg/kg (mRNA dose)): lower luciferase activity
CCCCCCCCCOC(=O)CCCCCCCN(CCO)CCCCCCCOC(=O)C(CCCCCCCC)CCCCCCCC [Compound 30, 7-((2-Hydroxyethyl)(8-(nonyloxy)-8-oxooctyl)amino)heptyl 2-octyldecanoate] | 0.15 | 59.4 |  | 6.38E+06 | 2.68E+09 | 1.02E+07 | 3.55E+07 | 152.51 | 1638.77 | 95.69 |  | 1.19E+10 | 2.09E+10 | 1.21E+09 | 2.49 | PDI [1, 7]: 0.13; Size (nm) [1, 7]: 76.3 nm; PDI [1, 8]: 0.12; Size (nm) [1, 8]: 81.7 nm; PDI [1, 9]: 0.11; Size (nm) [1, 9]: 89.8 nm; EE (%) [3, 7]: 96.32%; % EE [3, 8]: 93.0%; % EE [3, 9]: 93.1%; Novel lipid/MC3 ratio, 6 hr. timepoint, i.v. (luciferase (Luc) mRNA [4]; luciferase, intravenous, relative to MC3, Table 3G): 2.49; Novel lipid/MC3 expression ratio, 6 hr. time point, i.v. (luciferase (Luc) mRNA [4]; luciferase, intravenous, relative to MC3 formulation): 2.49
CCCCCCCC/C=C\COC(=O)CCCCCN(CCO)CCCCCC(=O)OC/C=C\CCCCCCCC [Compound 140, Di((Z)-undec-2-en-1-yl) 6,6′-((2-hydroxyethyl)azanediyl)dihexanoate] | 0.84 | 120.3 |  | 3.26E+04 | 4.21E+05 | 2.14E+04 | 2.22E+05 | 282.82 | 187.83 | 89.2 |  | 3.74E+06 | 1.70E+06 | 5.67E+05 |  | flux at all timepoints measured (luciferase (Luc) mRNA [4]; mice, i.v., 0.5 mg/kg, 3, 6 and 24 hour, in words): significantly lower flux
